Test results as given in patent US7972800B2, “Screening method for binding property or signal transduction alterations” (Takeda Pharmaceutical Company Limited, priority 2003, dated 2011).

Tested on: bladder (micturition) of conscious rats
Experiment: Cystometry in conscious rats with intravesical infusion
Format: in vivo, rat
Conditions: female SD rats, 1 mM CuCl2 in saline infused into the bladder
Experimental: Female SD rats of 9-10 weeks old were anaesthetized by intramuscular injection with 0.1 ml/100 g of a solution obtained by mixing ketamine (50 mg/mL) and xylazine (20 mg/mL) in 5:1. The bladder was then exposed via a midline incision and a hole was made with a 20-G needle to insert a polyethylene tube (PE-50), which tube was sutured to the bladder with cotton thread. The polyethylene tube cannulated into the bladder was cut at a length of about 1 cm, which was connected to a silicon tube (No. 00) and exposed to the dorsum through the skin. The animals were housed in individual cages until they were used for the experiments.
One day after the surgery, the animal was anesthetized with halothane and placed in Ballman cages under restricted conditions. After a three-way cock was connected to the tube cannulated into the bladder, a saline infusion tube was connected to a cystometry tube (resistance to infusion). An electronic scale was placed under the Ballman cages and the micturition volume was measured at the same time. When the anesthetic completely worn off, the infusion of saline into the bladder commenced and the bladder pressure and micturition volume were recorded on a personal computer via an A-D converter (MP-100, BIOPAC Systems) and analyzed using a dedicated software (AcqKnowledge, BIOPAC Systems).
Saline was infused into the bladder at the rate of 6 ml/hr and the infusion was continued for 1 or 2 hours until stable micturition was recorded. In order to enhance the permeability of a drug into the bladder, protamine sulfate (10 mg/mL in PBS) was infused into the bladder for an hour (Chuang Y, et. al., 2003, Urology, 63, 664-670). […] Then, saline was reinfused into the bladder and micturition was recorded at least 2 hours until protamine was completely washed off. […] Mean micturition intervals during from about 30 minutes to about 60 minutes after starting the infusion of CuCl2 were calculated to find a ratio to mean micturition intervals for about 30 minutes before the infusion of CuCl2 (% of the pre-value).

SMILES: [Cl][Cu][Cl] [copper chloride]
- basal pressure (bladder): not affected
- ratio of mean micturition intervals (% of the pre-value) (about 30-60 min after start vs about 30 min before, pre-value made 100%, n=4): 42.2±6.1%
